Measurements as given in ChEMBL document CHEMBL1146988, “The spermicidal and antitrichomonas activities of SSRI antidepressants” (2006).

How the values were obtained:
[1] = test system: Trichomonas vaginalis; assay: Antitrichomonas activity against Trichomonas vaginalis after 48 hrs; type: functional
[2] = test system: Spermatozoa; assay: Spermicidal activity against human spermatozoa; type: functional

SMILES	MLC [1] [%]	ED50 [2] [%]	MEC [2] [%]	MLC50 [1] [%]
CNCCC(Oc1ccc(C(F)(F)F)cc1)c1ccccc1.Cl (stereo unspecified) [FLUOXETINE HYDROCHLORIDE]	0.003			
COCCCC/C(=N\OCCN)c1ccc(C(F)(F)F)cc1.O=C(O)/C=C\C(=O)O [FLUVOXAMINE MALEATE]	0.005	0.005	0.1	0.003
CCCCCCCCCc1ccc(OCCOCCOCCOCCOCCOCCOCCOCCOCCO)cc1 [NONOXYNOL 9]	0.002	0.01	0.05	0.0009
Cl.Cl.Fc1ccc([C@@H]2CCNC[C@H]2COc2ccc3c(c2)OCO3)cc1.Fc1ccc([C@@H]2CCNC[C@H]2COc2ccc3c(c2)OCO3)cc1.O [PAROXETINE HYDROCHLORIDE]	>0.01	0.008	0.1	
Cl.NCCc1c[nH]c2ccc(O)cc12 [SEROTONIN HYDROCHLORIDE]			>1	
CN[C@H]1CC[C@@H](c2ccc(Cl)c(Cl)c2)c2ccccc21.Cl [SERTRALINE HYDROCHLORIDE]	0.003		0.5	0.0012
